PubChem BioAssay AID2060616 (Molecular Pharmacology Branch, DTP, NCI, 2025)
Several values for one entry are separate records, joined by “and”; a condition that tells them apart may be missing. Equal entries are not always repeated.

Tested on: 377384-186-R-J1-PDC complex spheroid viability
Experiment: Anticancer human tumor 377384-186-R-J1-PDC patient-derived pancreatic carcinoma cell line growth inhibition [CLK]
Details: for viability, T/C: stronger effect = lower value
How it was run: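 Multi-cell-type spheroids combined patient-derived tumor cells with HUVEC endothelial cells and human mesenchymal stem cells. Paired agents were dosed in half-log steps down from about clinical Cmax, or from 10 microM where Cmax was unknown.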

[1] = curve of first compound, second compound 0.0316 µM
[2] = curve of first compound, second compound 0.1 µM
[3] = curve of first compound, second compound 0.316 µM
[4] = curve of first compound, second compound 1 µM
[5] = curve of first compound, second compound 3.16 µM
[6] = curve of first compound, second compound 10 µM
[7] = second compound 0.0316 µM, first compound 0.0316 µM
[8] = second compound 0.0316 µM, first compound 0.1 µM
[9] = second compound 0.0316 µM, first compound 0.316 µM
[10] = second compound 0.0316 µM, first compound 1 µM
[11] = second compound 0.0316 µM, first compound 3.16 µM
[12] = second compound 0.0316 µM, first compound 10 µM
[13] = second compound 0.1 µM, first compound 0.0316 µM
[14] = second compound 0.1 µM, first compound 0.1 µM
[15] = second compound 0.1 µM, first compound 0.316 µM
[16] = second compound 0.1 µM, first compound 1 µM
[17] = second compound 0.1 µM, first compound 3.16 µM
[18] = second compound 0.1 µM, first compound 10 µM
[19] = second compound 0.316 µM, first compound 0.0316 µM
[20] = second compound 0.316 µM, first compound 0.1 µM
[21] = second compound 0.316 µM, first compound 0.316 µM
[22] = second compound 0.316 µM, first compound 1 µM
[23] = second compound 0.316 µM, first compound 3.16 µM
[24] = second compound 0.316 µM, first compound 10 µM
[25] = second compound 1 µM, first compound 0.0316 µM
[26] = second compound 1 µM, first compound 0.1 µM
[27] = second compound 1 µM, first compound 0.316 µM
[28] = second compound 1 µM, first compound 1 µM
[29] = second compound 1 µM, first compound 3.16 µM
[30] = second compound 1 µM, first compound 10 µM
[31] = second compound 3.16 µM, first compound 0.0316 µM
[32] = second compound 3.16 µM, first compound 0.1 µM
[33] = second compound 3.16 µM, first compound 0.316 µM
[34] = second compound 3.16 µM, first compound 1 µM
[35] = second compound 3.16 µM, first compound 3.16 µM
[36] = second compound 3.16 µM, first compound 10 µM
[37] = second compound 10 µM, first compound 0.0316 µM
[38] = second compound 10 µM, first compound 0.1 µM
[39] = second compound 10 µM, first compound 0.316 µM
[40] = second compound 10 µM, first compound 1 µM
[41] = second compound 10 µM, first compound 3.16 µM
[42] = second compound 10 µM, first compound 10 µM
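Note: spheroids exposed to agents for 7 days before reading.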
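Throughout, for viability, T/C: luminescence signal used as a stand-in for viable cells.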

`COc1cccc2c1C(=O)c1c(O)c3c(c(O)c1C2=O)CC(O)(C(=O)CO)CC3OC1CC(N)C(O)C(C)O1` (stereo not drawn) + CNC(=O)c1ccc(Nc2nc(OC3CCCC3)c3c(-c4ccc5nc(C)oc5c4)c[nH]c3n2)c(OC)c1 was tested. Which IC50 [1] did it give?
The IC50 was under 31.6 nM.

What about the IC50 [2] of the same molecule?
The IC50 was under 31.6 nM.

And the IC50 [3]?
The IC50 was under 31.6 nM.

What about the IC50 [4] of the same molecule?
Its IC50 is under 31.6 nM.

And the IC50 [5]?
Its IC50 is under 31.6 nM.

And the IC50 [6]?
Its IC50 is under 31.6 nM.

And the viability, T/C [7]?
Its viability, T/C is 10.2%.

What about the viability, T/C [8] of the same molecule?
Its viability, T/C is 4.37%.

And the viability, T/C [9]?
Its viability, T/C is 1.55%.

And the viability, T/C [10]?
The viability, T/C was 0.38%.

And the viability, T/C [11]?
Its viability, T/C is 3.07%.

And the viability, T/C [12]?
The viability, T/C was 5.83%.

And the viability, T/C [13]?
Its viability, T/C is 9.1%.

And the viability, T/C [14]?
The viability, T/C was 3.91%.

And the viability, T/C [15]?
Its viability, T/C is 1.38%.

What about the viability, T/C [16] of the same molecule?
Its viability, T/C is 0.45%.

And the viability, T/C [17]?
The viability, T/C was 3.75%.

And the viability, T/C [18]?
Its viability, T/C is 7.17%.

And the viability, T/C [19]?
The viability, T/C was 9.14%.

And the viability, T/C [20]?
The viability, T/C was 3.32%.

What about the viability, T/C [21] of the same molecule?
The viability, T/C was 1.45%.

And the viability, T/C [22]?
Its viability, T/C is 0.82%.

And the viability, T/C [23]?
The viability, T/C was 4.73%.

What about the viability, T/C [24] of the same molecule?
The viability, T/C was 9.99%.

And the viability, T/C [25]?
Its viability, T/C is 7.32%.

What about the viability, T/C [26] of the same molecule?
The viability, T/C was 2.1%.

And the viability, T/C [27]?
Its viability, T/C is 0.65%.

And the viability, T/C [28]?
The viability, T/C was 0.52%.

And the viability, T/C [29]?
The viability, T/C was 3.63%.

What about the viability, T/C [30] of the same molecule?
The viability, T/C was 11.6%.

And the viability, T/C [31]?
Its viability, T/C is 9.23%.

And the viability, T/C [32]?
Its viability, T/C is 1.54%.

What about the viability, T/C [33] of the same molecule?
Its viability, T/C is 0.4%.

What about the viability, T/C [34] of the same molecule?
The viability, T/C was 0.63%.

And the viability, T/C [35]?
The viability, T/C was 5.3%.

And the viability, T/C [36]?
The viability, T/C was 7.54%.

And the viability, T/C [37]?
Its viability, T/C is 7.12%.

What about the viability, T/C [38] of the same molecule?
Its viability, T/C is 2.27%.

What about the viability, T/C [39] of the same molecule?
Its viability, T/C is 0.51%.

And the viability, T/C [40]?
The viability, T/C was 1.07%.

And the viability, T/C [41]?
The viability, T/C was 5.51%.

What about the viability, T/C [42] of the same molecule?
The viability, T/C was 9.57%.

Which IC50 [1] does the source give for `CC(Nc1ccc2c(c1)OCCn1cc(N3C(=O)OCC3C(F)F)nc1-2)C(N)=O` (stereo not drawn) + CNC(=O)c1ccc(Nc2nc(OC3CCCC3)c3c(-c4ccc5nc(C)oc5c4)c[nH]c3n2)c(OC)c1 here?
Its IC50 is 905 nM.

What about the IC50 [2] of the same molecule?
Its IC50 is 221 nM.

And the IC50 [3]?
The IC50 was under 31.6 nM.

And the IC50 [4]?
The IC50 was under 31.6 nM.

And the IC50 [5]?
Its IC50 is under 31.6 nM.

And the IC50 [6]?
The IC50 was under 31.6 nM.

And the viability, T/C [7]?
The viability, T/C was 84.8%.

What about the viability, T/C [8] of the same molecule?
Its viability, T/C is 90.6%.

What about the viability, T/C [9] of the same molecule?
The viability, T/C was 71.2%.

What about the viability, T/C [10] of the same molecule?
Its viability, T/C is 49.1%.

What about the viability, T/C [11] of the same molecule?
The viability, T/C was 41.6%.

What about the viability, T/C [12] of the same molecule?
The viability, T/C was 41.2%.

And the viability, T/C [13]?
The viability, T/C was 59%.

And the viability, T/C [14]?
Its viability, T/C is 61.5%.

And the viability, T/C [15]?
The viability, T/C was 41.7%.

And the viability, T/C [16]?
The viability, T/C was 42.8%.

What about the viability, T/C [17] of the same molecule?
The viability, T/C was 33.4%.

And the viability, T/C [18]?
Its viability, T/C is 29%.

What about the viability, T/C [19] of the same molecule?
The viability, T/C was 21.1%.

And the viability, T/C [20]?
The viability, T/C was 20.5%.

What about the viability, T/C [21] of the same molecule?
Its viability, T/C is 18.4%.

What about the viability, T/C [22] of the same molecule?
Its viability, T/C is 15%.

What about the viability, T/C [23] of the same molecule?
The viability, T/C was 13.5%.

What about the viability, T/C [24] of the same molecule?
The viability, T/C was 14%.

And the viability, T/C [25]?
Its viability, T/C is 18.1%.

And the viability, T/C [26]?
The viability, T/C was 14.4%.

And the viability, T/C [27]?
Its viability, T/C is 14.4%.

And the viability, T/C [28]?
The viability, T/C was 14.8%.

What about the viability, T/C [29] of the same molecule?
The viability, T/C was 12.8%.

And the viability, T/C [30]?
The viability, T/C was 12.6%.

What about the viability, T/C [31] of the same molecule?
Its viability, T/C is 17.7%.

What about the viability, T/C [32] of the same molecule?
The viability, T/C was 18.5%.

And the viability, T/C [33]?
Its viability, T/C is 18%.

What about the viability, T/C [34] of the same molecule?
The viability, T/C was 14.2%.

And the viability, T/C [35]?
The viability, T/C was 13.1%.

And the viability, T/C [36]?
Its viability, T/C is 11.8%.

What about the viability, T/C [37] of the same molecule?
Its viability, T/C is 16.1%.

What about the viability, T/C [38] of the same molecule?
Its viability, T/C is 17.5%.

What about the viability, T/C [39] of the same molecule?
The viability, T/C was 14.1%.

What about the viability, T/C [40] of the same molecule?
The viability, T/C was 15.6%.

And the viability, T/C [41]?
The viability, T/C was 13.4%.

What about the viability, T/C [42] of the same molecule?
The viability, T/C was 11.6%.

Which results are given for `Nc1ccccc1NC(=O)c1ccc(CNC(=O)OCc2cccnc2)cc1` + CN1CCN(c2cc(C(=O)Nc3cc4cc(-c5cnn(C)c5)ccc4cn3)ccn2)CC1?
IC50 [1]: 780 nM; IC50 [2]: 822 nM; IC50 [3]: < 31.6 nM; IC50 [4]: < 31.6 nM; IC50 [5]: < 31.6 nM; IC50 [6]: < 31.6 nM; viability, T/C [7]: 103%; viability, T/C [8]: 90%; viability, T/C [9]: 76.3%; viability, T/C [10]: 42.4%; viability, T/C [11]: 16.2%; viability, T/C [12]: 1.31%; viability, T/C [13]: 109%; viability, T/C [14]: 103%; viability, T/C [15]: 90.8%; viability, T/C [16]: 38.9%; viability, T/C [17]: 17.7%; viability, T/C [18]: 0.84%; viability, T/C [19]: 30.4%; viability, T/C [20]: 28.1%; viability, T/C [21]: 29.1%; viability, T/C [22]: 19%; viability, T/C [23]: 3.98%; viability, T/C [24]: 0.15%; viability, T/C [25]: 1.55%; viability, T/C [26]: 1.77%; viability, T/C [27]: 1.31%; viability, T/C [28]: 0.3%; viability, T/C [29]: 0.25%; viability, T/C [30]: 0.12%; viability, T/C [31]: 0.38%; viability, T/C [32]: 0.95%; viability, T/C [33]: 0.9%; viability, T/C [34]: 0.39%; viability, T/C [35]: 0.52%; viability, T/C [36]: 0.62%; viability, T/C [37]: 0.58%; viability, T/C [38]: 0.42%; viability, T/C [39]: 0.45%; viability, T/C [40]: 0.3%; viability, T/C [41]: 0.62%; viability, T/C [42]: 0.76%

`CC1COCCN1c1cc(C2(S(C)(=N)=O)CC2)nc(-c2ccnc3[nH]ccc23)n1` (stereo not drawn) was tested. Which viability, T/C (compound 0.0316 µM) did it give?
Its viability, T/C is 85.7% and 90.6%.

What about the viability, T/C (compound 0.1 µM) of the same molecule?
Its viability, T/C is 108% and 109%.

And the viability, T/C (compound 0.316 µM)?
Its viability, T/C is 83.9% and 91.1%.

And the viability, T/C (compound 1 µM)?
Its viability, T/C is 82.9% and 74.7%.

And the viability, T/C (compound 3.16 µM)?
The viability, T/C was 44% and 35.3%.

What about the viability, T/C (compound 10 µM) of the same molecule?
Its viability, T/C is 17.6% and 14.9%.

And the IC50 (curve of compound)?
Its IC50 is 2660 nM and 2050 nM.
